{"source": "paper PMC6928743", "about": "“3’-O-Methylorobol Inhibits the Voltage-Gated Sodium Channel Nav1.7 with Anti-Itch Efficacy in A Histamine-Dependent Itch Mouse Model” (International Journal of Molecular Sciences, 2019)", "type_in_all_cases": "cell-based", "key": {"Nav1.7": {"target": "T1, Nav1.7 (Homo sapiens, UniProt Q15858)", "T1 construct": "gene SCN9A", "T1 sequence (Q15858 whole entry)": "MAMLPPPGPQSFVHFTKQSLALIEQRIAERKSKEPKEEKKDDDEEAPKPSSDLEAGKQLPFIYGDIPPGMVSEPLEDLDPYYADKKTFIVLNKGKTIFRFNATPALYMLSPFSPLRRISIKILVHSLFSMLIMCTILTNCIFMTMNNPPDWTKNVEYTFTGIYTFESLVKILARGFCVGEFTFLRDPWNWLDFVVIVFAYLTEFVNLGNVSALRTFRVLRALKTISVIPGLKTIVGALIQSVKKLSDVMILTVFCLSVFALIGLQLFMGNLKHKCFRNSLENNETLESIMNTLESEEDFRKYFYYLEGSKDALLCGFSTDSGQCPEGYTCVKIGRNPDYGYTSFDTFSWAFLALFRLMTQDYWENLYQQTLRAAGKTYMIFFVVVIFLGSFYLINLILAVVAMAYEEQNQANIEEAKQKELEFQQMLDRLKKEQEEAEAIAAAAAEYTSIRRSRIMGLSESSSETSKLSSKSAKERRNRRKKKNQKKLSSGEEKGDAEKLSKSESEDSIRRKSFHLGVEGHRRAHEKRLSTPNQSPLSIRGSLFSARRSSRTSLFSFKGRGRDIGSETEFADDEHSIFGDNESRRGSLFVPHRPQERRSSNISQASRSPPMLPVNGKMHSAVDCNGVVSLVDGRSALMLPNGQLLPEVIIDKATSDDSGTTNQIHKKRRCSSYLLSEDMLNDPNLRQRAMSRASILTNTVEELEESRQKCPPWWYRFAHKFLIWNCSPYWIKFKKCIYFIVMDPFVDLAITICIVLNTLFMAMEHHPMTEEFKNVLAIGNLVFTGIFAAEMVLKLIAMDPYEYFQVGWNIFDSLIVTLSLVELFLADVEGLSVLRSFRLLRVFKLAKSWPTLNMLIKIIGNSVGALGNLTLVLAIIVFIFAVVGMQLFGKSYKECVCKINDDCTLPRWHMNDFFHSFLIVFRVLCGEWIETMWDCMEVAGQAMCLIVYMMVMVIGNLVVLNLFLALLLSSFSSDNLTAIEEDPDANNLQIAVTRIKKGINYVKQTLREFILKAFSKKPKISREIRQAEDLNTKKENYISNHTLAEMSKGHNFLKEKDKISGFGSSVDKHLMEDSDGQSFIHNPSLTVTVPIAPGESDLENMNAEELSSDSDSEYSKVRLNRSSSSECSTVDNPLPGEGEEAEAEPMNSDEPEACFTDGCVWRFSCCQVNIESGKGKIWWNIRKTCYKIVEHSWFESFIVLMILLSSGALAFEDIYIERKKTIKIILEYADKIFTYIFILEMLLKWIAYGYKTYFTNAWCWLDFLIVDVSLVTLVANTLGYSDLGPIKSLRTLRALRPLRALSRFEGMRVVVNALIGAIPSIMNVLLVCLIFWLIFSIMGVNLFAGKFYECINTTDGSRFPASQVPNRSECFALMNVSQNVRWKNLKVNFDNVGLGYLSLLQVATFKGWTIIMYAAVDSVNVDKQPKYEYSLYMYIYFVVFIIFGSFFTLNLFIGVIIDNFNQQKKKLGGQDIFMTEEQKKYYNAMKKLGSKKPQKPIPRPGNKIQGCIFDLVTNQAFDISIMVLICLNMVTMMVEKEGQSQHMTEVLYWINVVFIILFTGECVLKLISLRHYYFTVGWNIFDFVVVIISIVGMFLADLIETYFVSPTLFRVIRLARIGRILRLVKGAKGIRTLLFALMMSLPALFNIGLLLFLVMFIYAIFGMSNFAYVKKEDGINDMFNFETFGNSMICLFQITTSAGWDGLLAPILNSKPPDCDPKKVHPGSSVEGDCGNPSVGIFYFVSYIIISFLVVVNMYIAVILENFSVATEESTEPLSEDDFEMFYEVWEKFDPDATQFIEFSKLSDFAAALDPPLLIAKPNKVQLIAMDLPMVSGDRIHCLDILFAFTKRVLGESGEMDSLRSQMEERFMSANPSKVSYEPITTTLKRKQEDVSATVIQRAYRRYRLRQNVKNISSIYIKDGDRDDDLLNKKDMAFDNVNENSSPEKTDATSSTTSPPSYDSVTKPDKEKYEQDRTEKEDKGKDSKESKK", "assay": "whole-cell voltage-clamp in CHO cells stably expressing hNav1.[…]"}, "Nav1.6": {"target": "T2, Nav1.6 (Homo sapiens, UniProt Q9UQD0)", "T2 construct": "gene SCN8A", "T2 sequence (Q9UQD0 whole entry)": "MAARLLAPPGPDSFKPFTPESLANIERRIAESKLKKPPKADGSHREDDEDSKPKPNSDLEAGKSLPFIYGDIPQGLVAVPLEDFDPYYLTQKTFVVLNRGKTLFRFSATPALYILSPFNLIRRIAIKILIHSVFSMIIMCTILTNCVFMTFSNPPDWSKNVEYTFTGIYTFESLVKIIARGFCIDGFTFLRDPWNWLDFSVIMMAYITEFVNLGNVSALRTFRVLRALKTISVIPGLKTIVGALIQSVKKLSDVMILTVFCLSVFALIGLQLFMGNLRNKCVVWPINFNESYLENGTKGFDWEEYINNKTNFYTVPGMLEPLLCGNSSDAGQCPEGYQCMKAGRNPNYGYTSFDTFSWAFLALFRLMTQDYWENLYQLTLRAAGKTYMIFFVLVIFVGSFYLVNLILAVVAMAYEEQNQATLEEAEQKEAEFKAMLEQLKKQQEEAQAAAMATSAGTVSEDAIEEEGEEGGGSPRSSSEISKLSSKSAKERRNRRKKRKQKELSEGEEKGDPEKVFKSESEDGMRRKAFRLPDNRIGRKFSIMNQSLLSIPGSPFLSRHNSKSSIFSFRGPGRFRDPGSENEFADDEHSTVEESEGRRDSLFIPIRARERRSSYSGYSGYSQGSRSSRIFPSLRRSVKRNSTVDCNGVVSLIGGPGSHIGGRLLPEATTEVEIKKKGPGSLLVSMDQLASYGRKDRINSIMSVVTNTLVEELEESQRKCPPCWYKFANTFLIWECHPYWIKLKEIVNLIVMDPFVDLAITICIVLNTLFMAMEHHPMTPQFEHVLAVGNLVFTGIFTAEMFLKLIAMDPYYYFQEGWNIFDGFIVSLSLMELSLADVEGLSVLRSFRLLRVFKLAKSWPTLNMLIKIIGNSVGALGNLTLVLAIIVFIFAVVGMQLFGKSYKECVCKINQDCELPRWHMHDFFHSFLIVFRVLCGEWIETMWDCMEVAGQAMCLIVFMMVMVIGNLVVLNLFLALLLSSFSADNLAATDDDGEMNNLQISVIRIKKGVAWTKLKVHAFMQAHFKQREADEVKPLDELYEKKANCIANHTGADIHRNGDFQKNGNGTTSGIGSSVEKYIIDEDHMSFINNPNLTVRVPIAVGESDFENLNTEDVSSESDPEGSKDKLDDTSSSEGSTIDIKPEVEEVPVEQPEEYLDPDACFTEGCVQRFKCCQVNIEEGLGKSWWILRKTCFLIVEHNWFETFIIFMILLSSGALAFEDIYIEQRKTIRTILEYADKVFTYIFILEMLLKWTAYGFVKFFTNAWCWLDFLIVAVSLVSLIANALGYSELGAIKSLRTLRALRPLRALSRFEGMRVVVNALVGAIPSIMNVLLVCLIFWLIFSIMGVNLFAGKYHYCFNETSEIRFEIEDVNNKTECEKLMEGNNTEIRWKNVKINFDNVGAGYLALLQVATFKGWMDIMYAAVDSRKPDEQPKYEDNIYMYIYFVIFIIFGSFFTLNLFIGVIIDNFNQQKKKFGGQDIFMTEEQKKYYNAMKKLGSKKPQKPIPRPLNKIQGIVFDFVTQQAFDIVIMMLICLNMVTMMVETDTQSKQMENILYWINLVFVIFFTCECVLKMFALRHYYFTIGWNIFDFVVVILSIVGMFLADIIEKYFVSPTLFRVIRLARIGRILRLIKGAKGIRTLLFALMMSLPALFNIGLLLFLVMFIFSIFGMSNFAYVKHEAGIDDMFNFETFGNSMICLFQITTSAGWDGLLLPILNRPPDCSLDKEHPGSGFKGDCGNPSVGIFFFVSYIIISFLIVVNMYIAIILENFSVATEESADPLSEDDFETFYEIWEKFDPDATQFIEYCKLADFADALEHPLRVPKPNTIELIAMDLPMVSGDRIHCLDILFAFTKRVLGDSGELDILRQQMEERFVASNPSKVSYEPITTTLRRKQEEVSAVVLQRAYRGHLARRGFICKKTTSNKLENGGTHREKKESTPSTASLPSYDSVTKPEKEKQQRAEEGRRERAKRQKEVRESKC", "assay": "whole-cell voltage-clamp in CHO cells stably expressing hNav1.[…], single concentration […]"}, "Nav1.8": {"target": "T3, Nav1.8 (Mus musculus, UniProt Q6QIY3)", "T3 construct": "gene Scn10a", "assay": "whole-cell voltage-clamp in ND7/[…] cells transiently expressing mNav1.[…], single concentration […]"}}}
{"smiles": "COc1cc(-c2coc3cc(O)cc(O)c3c2=O)ccc1O", "note": "[3’-O-methylorobol]", "values": [{"measurement": "IC50", "setting": "Nav1.7", "result": 3.46, "unit": "µM"}, {"measurement": "inhibition at 10 µM", "setting": "Nav1.6", "result": 39, "unit": "%"}, {"measurement": "inhibition at 10 µM", "setting": "Nav1.8", "result": 23, "unit": "%"}]}
